Results on eight molecules are retold here after patent publication EP4008330A1, “COMBINED INHIBITION OF AMINO ACID TRANSPORTERS FOR INHIBITING HUMAN PLASMACYTOID DENDRITIC CELL ACTIVITY DURING AUTOIMMUNITY” (Max-Planck-Gesellschaft zur Förderung der Wissenschaften …, priority 2020, dated 2022).

Data set [1] deals with mTORC1. The data set is described as follows: S6 (S235/236) phosphorylation in pDC by flow cytometry, as measure of mTORC1 activity. Format: cell-based, human. Particulars: pDC in IL-3 with inhibitor, stimulated with CpG-A; 20 nM RAP, 1µM AZD, BAR. On the procedure: (§1) Cells were stimulated with 5 µM CpG-A ODN (ODN2216, InvivoGen) for times indicated.
(§2) Isolated pDC staining was performed in 0.5% BSA in PBS for 10 min at RT, dead cells were excluded with the LIVE/DEAD Fixable Near-IR or Aqua Dead Cell Stain Kits (Thermo scientific). Unspecific binding was blocked with FcR blocking reagent (Miltenyi). The following fluorochrome-conjugated Abs were used for intracellular staining: IFNα (Miltenyi, LT27:295), TNFα (BioLegend, clone Mab11), pS6(S235/236; CST, clone D57.2.2e), pSTAT5 (Y694; CST, clone C71E5). After surface staining, cells were fixed using Fixation/Permeabilization Kit (BD Bioscience) for 20 min at 4°C, and then additionally permeabilized in Perm/Wash solution for 30 min at 4°C, after which cells were incubated with antibodies against intracellular proteins, at previously determined antibody dilutions, for 30 min at RT. […] Cycloheximide (Sigma) at 100 µg/ml was used as a positive control for protein synthesis inhibition.

Data set [2] deals with SLC7A5 and SLC3A2. Briefly: SLC7A5 and SLC3A2 mRNA expression in pDC (PrimeFlow RNA). Particulars: pDC in IL-3 and inhibitor o/n, then CpG-A 5h.
Data set [3] concerns the target T1, System LAA transporters SLC7A5 and SLC3A2 (Homo sapiens, UniProt Q01650).
T1 construct: freshly isolated pDC from PBMC of healthy donors and SLE patients also expressed System LAA transporters SLC7A5 and SLC3A2; endogenous in cells; host or cells: Primary plasmacytoid dendritic cells isolated from PBMC of human donors
Briefly: Kynurenine uptake by pDC (flow cytometry), System LAA transporter activity. In kind it is cell-based. On the procedure:
(§3) Briefly, stained cells were incubated in HBSS (Gibco) with 200 µM kynurenine (Sigma) for 4 min at 37°C.
To assess whether IL-3-induced expression of SLC7A5 and SLC3A2 allowed the assembly of a functional System LAA transporter, we used a flow cytometry-based assay that measures the ability of cells to take up kynurenine, a naturally fluorescing molecule that is transported into cells via SLC7A5; this can be used as a proxy measurement of large neutral amino acid (LNAA) uptake. […] Of interest, freshly isolated pDC from PBMC of healthy donors and SLE patients also expressed System LAA transporters SLC7A5 and SLC3A2 (Figure 5D) and furthermore pDC from healthy donors had the ability to take up kynurenine immediately ex vivo, a process that was blocked by BCH (Figure 5E).
(Flow cytometry measures light scatter and fluorescence of single cells or particles in a stream.)

Data set [4] has as its system pDC. The data set is described as follows: Combined kynurenine uptake and pS6 (S235/236) in pDC (double positive cells). In kind it is cell-based, human.
Text: To confirm that functional System LAA transport is a prerequisite for mTORC1 activation in response to CpG-A, the effects of IL-3 and CpG-A were examined on combined measurements of kynurenine uptake, S6 (S235/236) phosphorylation and cytokine production.
In data set [5] the test system is pDC. The data set is described as follows: Intracellular IFNα and TNFα production by CpG-A-stimulated isolated pDC (flow cytometry). Format: cell-based, human.
Text: PBMC from buffy coats from healthy blood donors were isolated by density gradient centrifugation using SepMate tubes and Lymphoprep (both […] Technologies). pDC were negatively selected from PBMC using the plasmacytoid dendritic cell isolation kit II (Miltenyi Biotec). Buffy coats were kindly provided by the Institute for Transfusion Medicine and Gene Therapy, Medical Center - University of Freiburg (donor consent, anonymized). Skin samples of lupus patients were obtained through the biobank of the SFB829 (Z4 project) with informed consent from all the subjects and ethical approval obtained from the Ethics Committee at the University of Cologne (votes 12-163 and 19-1146). SLE PBMC were provided by ImmRheum biobank in Freiburg, a project that was approved by the local ethical committee (votes 507/16 and 624/14). All patients who provided blood to the biobank had provided written informed consent.
as §1
as §2, with “The following fluorochrome-conjugated monoclonal antibodies were used for staining cell surface markers: IL-3Ra (CD123) (Miltenyi Biotec, clone AC145), HLA-DR (BD Bioscience, clone G46-6), CD116 (BD Bioscience, clone hGMCSFR-M1), CD4 (Biolegend, clone A161A1). […] Isolated” for “Isolated”

The subject of data set [6] is SLC7A11. Briefly: SLC7A11 mRNA expression in pDC (PrimeFlow RNA). In kind it is cell-based, human. Particulars: pDC in IL-3 and inhibitor o/n; for SLC7A11 and SLC7A5 mRNA expression (double positive cells): then CpG-A 5h (Figure 12B). How it is done:
as §1, §3

For data set [7], the system named is STAT5 (Y694). Briefly: STAT5 (Y694) phosphorylation in pDC by flow cytometry. In kind it is cell-based, human. Particulars: IL-3-induced; pDC with inhibitor o/n. How it is done: as §1, §2
The subject of data set [8] is pDC. Briefly: Live cells / cell death of isolated pDC (LIVE/DEAD stain). Format: cell-based. How it is done: as §1, §2
Data set [9] has as its system pDC. The data set is described as follows: Lactate levels in pDC culture medium (Cedex Bio Analyzer). Format: cell-based, human. Particulars: pDC in IL-3, CpG-A and inhibitor for 10 h. On the procedure: as §1
Glucose and lactate were measured in cell culture supernatants using the Cedex Bio Analyzer (Roche) and data presented as mmol/L.

In data set [10] the test system is pDC. Briefly: De novo protein synthesis in pDC, incorporation of puromycin analogue (OPP). Format: cell-based, human. The conditions noted are these: pDC in IL-3, CpG-A for 10 h and inhibitor.
Setting [11] is: cultured pDC +/- IL-3, +/- CpG-A, 200 µM kynurenine 4 min, 10 mM BCH at time of uptake.
The mark [12] stands for this setting: pDC in IL-3 and inhibitor o/n, then CpG-A 5h, 20 nM RAP, 250 nM TOR, 10µM HPA, 1µM AZD, BAR, 5 µM ERA, 100 or 200 µM SAZ.
[13] abbreviates: pDC in IL-3 and inhibitor o/n, then CpG-A 5h, 20 nM RAP, 10µM HPA, 1µM AZD, BAR, 5 µM ERA, 100 or 200 µM SAZ.
Setting [14] is: pDC in IL-3, CpG-A and inhibitors for 5h after o/n rest (Figure 4E), 10µM HPA, 1 µM oligomycin.

T1 sequence (Q01650 whole entry): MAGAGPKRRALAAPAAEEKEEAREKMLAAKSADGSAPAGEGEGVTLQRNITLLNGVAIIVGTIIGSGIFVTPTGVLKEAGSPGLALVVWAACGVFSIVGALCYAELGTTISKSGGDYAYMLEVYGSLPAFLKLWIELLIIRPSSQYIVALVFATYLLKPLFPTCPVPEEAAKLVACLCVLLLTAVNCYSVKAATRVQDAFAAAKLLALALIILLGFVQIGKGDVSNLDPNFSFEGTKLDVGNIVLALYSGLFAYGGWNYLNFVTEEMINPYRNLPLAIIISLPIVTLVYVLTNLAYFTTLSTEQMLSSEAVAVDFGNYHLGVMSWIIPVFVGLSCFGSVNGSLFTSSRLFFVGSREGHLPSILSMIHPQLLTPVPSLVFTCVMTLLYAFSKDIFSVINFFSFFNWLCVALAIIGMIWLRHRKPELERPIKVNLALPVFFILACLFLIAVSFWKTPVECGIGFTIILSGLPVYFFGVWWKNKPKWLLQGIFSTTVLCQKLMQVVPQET
T1 sequence (P08195 103-630 partner limits assumed): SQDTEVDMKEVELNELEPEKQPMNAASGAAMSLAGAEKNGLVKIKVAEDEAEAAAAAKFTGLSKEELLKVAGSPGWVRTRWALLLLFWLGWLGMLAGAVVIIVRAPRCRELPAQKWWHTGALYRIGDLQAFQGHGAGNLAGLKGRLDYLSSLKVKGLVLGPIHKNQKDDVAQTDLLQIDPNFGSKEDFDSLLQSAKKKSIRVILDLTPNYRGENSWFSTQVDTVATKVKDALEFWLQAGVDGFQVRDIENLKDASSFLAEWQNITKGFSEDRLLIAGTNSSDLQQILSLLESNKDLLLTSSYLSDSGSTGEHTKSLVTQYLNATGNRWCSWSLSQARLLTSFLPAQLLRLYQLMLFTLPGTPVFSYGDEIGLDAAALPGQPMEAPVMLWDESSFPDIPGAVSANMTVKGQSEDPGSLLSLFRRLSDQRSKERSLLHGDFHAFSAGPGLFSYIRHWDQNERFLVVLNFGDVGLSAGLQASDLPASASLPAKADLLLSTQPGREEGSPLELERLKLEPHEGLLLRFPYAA

In the case of `Cc1cc(Nc2nc(N[C@@H](C)c3ncc(F)cn3)ncc2Cl)n[nH]1` [AZD, AZD1480], the “pS6 (S235/236) expression” value in [1] is reported as “reductions”. Also, the “SLC7A5 and SLC3A2 mRNA expression” value in data set [2] is recorded as “significantly inhibited”. Besides, the kynurenine uptake entry in data set [3] (setting [11]) is “reductions”. In addition, the “kynurenine uptake and pS6 (S235/236) expression (cells with high rates of kynurenine uptake and mTORC1 activity)” value in [4] (pDC in GM-CSF and inhibitor o/n, then CpG-A 5h (Figure 8)) is listed as “inhibited”. Also, the IFNα production entry in data set [5] (setting [12]) was “lost and decrease”; in data set [5] (pDC maintained in GM-CSF and inhibitor o/n, then CpG-A 5h (Figure 8)) it was “inhibited”. Further, in [5] (setting [13]), the TNFα production entry is “decrease”. For the same molecule, in data set [6], the “SLC7A11 and SLC7A5 mRNA expression (double positive cells)” value is given as “lost expression of both transporters”. Further, the “pSTAT5 (Y694) expression” value in data set [7] was “inhibited”.

Regarding `CCS(=O)(=O)N1CC(CC#N)(n2cc(-c3ncnc4[nH]ccc34)cn2)C1` [BAR, baricitinib], the “live cells (cell death / cell survival)” value in data set [8] (BAR 25 to 100 nM, alone or with SAZ, IL-3 o/n, then CpG-A 5h (Figure 14C)) is “increased cell death”.

For the molecule `NC1(C(=O)O)CC2CCC1C2` (centres unmarked) [BCH, 2-Aminobicyclo[2.2.1]heptane-2-carboxylic acid], the kynurenine uptake result in [3] (setting [11]) is given as “abrogated transport of kynurenine in all of the conditions”; in [3] (pDC from healthy donors immediately ex vivo, 10 mM BCH), “blocked”.

Turning to `CCOc1ccccc1-n1c(C(C)N2CCN(C(=O)COc3ccc(Cl)cc3)CC2)nc2ccccc2c1=O` (centres unmarked) [ERA, erastin], the “live cells (cell death)” value in data set [8] was “absence of appreciable cell death”.

In the case of `CC(C)[C@H]1CC[C@@]2(CO2)[C@H]2C(=O)OCC(C(=O)O)=C[C@H]12` [HPA, heptelidic (koningic) acid], the IFNα production entry in data set [5] (setting [12]) was “reductions”. Moreover, the TNFα production result in [5] (setting [13]) was “reductions”. The “lactate levels in medium” value in data set [9] is recorded as “reduced secreted lactate levels to below those in cultures of unstimulated pDC”. Further, the “protein synthesis measured by incorporation of puromycin analogue (OPP)” value in data set [10] is “caused reductions in overall protein synthesis”.

For the molecule `CC[C@H]1/C=C/C=C/C[C@@H](C)[C@H](O)[C@@](C)(O)C(=O)[C@@H](C)[C@H](O)[C@@H](C)C(=O)[C@@H](C)[C@H](O)[C@@H](C)/C=C/C(=O)O[C@@H]2[C@H](C)[C@H](CC1)O[C@]1(CC[C@H](C)[C@H](C[C@@H](C)O)O1)[C@H]2C` [OLI, oligomycin], in [5] (setting [14]), the IFNα production result was “inhibited IFNα production to approximately the same extent as HPA” and the TNFα production result is given as “no effect”.

On to `O=C(O)c1cc(/N=N/c2ccc(S(=O)(=O)Nc3ccccn3)cc2)ccc1O` [Sulfasalazine, sulfasalazine], for which the “kynurenine uptake and pS6 (S235/236) expression (cells positive for both)” value in [4] (pDC in IL-3 and inhibitor o/n, then CpG-A 5h) was “reductions”. The IFNα production result in data set [5] (setting [12]) was “inhibited”. For the same molecule, the TNFα production result in data set [5] (setting [13]) is recorded as “inhibited”.

Regarding `CCC(=O)N1CCN(c2ccc(-n3c(=O)ccc4cnc5ccc(-c6cnc7ccccc7c6)cc5c43)cc2C(F)(F)F)CC1` [TOR, torin1], the IFNα production result in data set [5] (setting [12]) was “similar, although less pronounced effect”. Further, in data set [6] (then CpG-A 5h), the “SLC7A11 mRNA expression” value is “inhibited”. Also, the “SLC7A11 and SLC7A5 mRNA expression (double positive cells)” value in data set [6] was “similar, although less pronounced effect”. In data set [9], the “lactate levels in medium” value is reported as “decline in CpG-A-induced lactate release”.
